In patent US20020137929A1, “1 - (3-heterocyclylphenyl) isothiourea, -isourea, -guanidine and -amidine herbicidal agents” (Intellectual Property Department, BASF Aktiengesellschaft, priority 1998, published 2002):

How the values were obtained:
GALAP (Galium) [1] = experiment: Preemergence herbicidal evaluation; type: in vivo, Galium aparine; details: rated 4-5 weeks after treatment
Outline: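 Sown cups got a single aqueous acetone spray of test compound (roughly 0.0156–0.500 kg/ha) before seedlings emerged. Evaluation, 4–5 weeks on, used a 0–9 visual scale covering plant stand, vigor, size, malformation, chlorosis and general appearance compared with controls.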

GALAP (Galium) [2] = experiment: Postemergence herbicidal evaluation; type: in vivo, Galium aparine
Outline: (§1)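 Scores (0–9) reflect plant stand, vigor, malformation, size, chlorosis and general appearance relative to control, read 4 to 5 weeks after treatment and averaged where tests were repeated. Application: about 0.0156–0.500 kg/ha sprayed at 40 psi onto two-week seedlings.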

ABUTH (Velvetleaf) = experiment: Postemergence herbicidal evaluation; type: in vivo, Abutilon theophrasti
Outline: as §1

ORYSAT (Rice, Tebonnet) [3] = experiment: Rice tolerance to post-transplant applications, flooded paddy conditions (Table III); type: in vivo, Oryza sativa, (L.) Tebonnet
Outline: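 Injury scored 0-9 by eye against untreated control, judging stand, vigor, malformation, size and chlorosis, three to four weeks after treatment. Compound in 50/50 aqueous/acetone, about 0.0313 to 0.500 kg/ha, was applied to paddy water (1.5 to 3 cm depth) three days after transplanting paired ten-day-old Tebonnet rice seedlings.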

MOOVA (Monochoria) = experiment: Postemergence weed control under flooded paddy conditions; type: in vivo, Monochoria vaginalis; details: postemergence weeds, 3-4 weeks after treatment
Outline: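 Herbicidal effect is judged by eye on a 0–9 scale versus control, 3–4 weeks after dosing. Dosing is into flood water kept 1.5–3 cm over the soil, at about 0.0313–0.500 kg/ha in aqueous/acetone 50/50 v/v, on 3–5 cm weeds and 1.5–2.5-leaf rice seedlings.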

ORYSAT (Rice, Tebonnet) [4] = experiment: Rice tolerance to post-transplant applications, flooded paddy conditions (Table IV); type: in vivo, Oryza sativa, (L.) Tebonnet
Source text: Results of herbicide evaluation are expressed on a rating scale (0-9). The scale is based upon a visual observation of plant stand, vigor, malformation, size, chlorosis and overall plant appearance as compared with a control.
Plastic containers containing weeds which are 3 to 5 cm tall and rice seedlings at the 1.5 to 2.5 leaf stage are flooded with water. The water is maintained at 1.5 to 3 cm above the soil surface for the duration of the experiment. Test compounds are applied as aqueous/ acetone mixtures 50/50 v/v directly into the flood water to provide the equivalent of about 0.0313 to 0.500 kg/ha of active ingredient. The treated containers are placed on greenhouse benches and cared for in accordance with conventional greenhouse procedures. Three to four weeks after treatment, the test is terminated and each container is examined and herbicidal effect rated according to the rating system provided in Example 37. The compounds evaluated are reported by compound number given in Example 37.

SMILES	Preemergence herbicidal rating GALAP (GALAP (Galium) [1]; rate 0.0313 kg/ha)	Preemergence herbicidal rating GALAP (GALAP (Galium) [1]; rate 0.0625 kg/ha)	Preemergence herbicidal rating GALAP (GALAP (Galium) [1]; rate 0.1250 kg/ha)	Preemergence herbicidal rating GALAP (GALAP (Galium) [1]; rate 0.2500 kg/ha)	Postemergence herbicidal rating GALAP (GALAP (Galium) [2]; Rate 0.0158 kg/ha)	Postemergence herbicidal rating GALAP (GALAP (Galium) [2]; Rate 0.0315 kg/ha)	Postemergence herbicidal rating GALAP (GALAP (Galium) [2]; Rate 0.0630 kg/ha)	Postemergence herbicidal rating ABUTH (ABUTH (Velvetleaf); Rate 0.0158 kg/ha)	Postemergence herbicidal rating ABUTH (ABUTH (Velvetleaf); Rate 0.0315 kg/ha)	Postemergence herbicidal rating ABUTH (ABUTH (Velvetleaf); Rate 0.0630 kg/ha)	Herbicidal rating ORYSAT (rice tolerance) (ORYSAT (Rice, Tebonnet) [3]; in vivo)	Herbicidal rating MOOVA (MOOVA (Monochoria); rate 0.1250 kg/ha)	Herbicidal rating MOOVA (MOOVA (Monochoria); rate 0.2500 kg/ha)	Herbicidal rating ORYSAT (rice tolerance) (ORYSAT (Rice, Tebonnet) [4]; in vivo)	Herbicidal rating MOOVA (MOOVA (Monochoria); rate 0.0625 kg/ha)	other results
Cn1c(C(F)(F)F)cc(=O)n(-c2cc(N=C3SCC(=O)N3CCC(=O)O)c(Cl)cc2F)c1=O [Compound 30, 2-{{2-Chloro-5-[3,6-dihydro-3-methyl-2,6-dioxo-4-(trifluoromethyl)-1(2H)-pyrimidinyl]-4-fluorophenyl}imino}-4-oxo-3-thiazolidinepropionic acid]	0.0	0.0	1.0	9.0	0.0	0.0	0.0	3.0	9.0	9.0	0.0	1.5	4.5	0.0	–	–
Cn1c(C(F)(F)F)cc(=O)n(-c2cc(N=C3SCC(=O)N3CCC(=O)O)c(Cl)cc2F)c1=O [Compound 31, 2-{{2-Chloro-5-[3,6-dihydro-3-methyl-2,6-dioxo-4-(trifluoromethyl)-1(2H)-pyrimidinyl]-4-fluoro-phenyl}imino}-4-oxo-3-thiazolidinepropionic acid]	–	0.0	–	6.0	0.0	1.0	3.0	9.0	9.0	9.0	0.0	0.0	2.5	0.0	0.0	–
CCOC(=O)COc1ccccc1CC1S/C(=N/c2cc(-n3c(=O)cc(C(F)(F)F)n(C)c3=O)c(F)cc2Cl)N(CC(=O)OCC)C1=O (stereo not shown) [Compound 42, 2-{{2-Chloro-5-[3,6-dihydro-3-methyl-2,6-dioxo-4-(trifluoromethyl)-1(2H)-pyrimidinyl]-4-fluoro-phenyl}imino}-5-(o-hydroxybenzyl)-4-oxo-3-thiazolidineacetic acid, ethyl ester, ester with ethyl glycolate]	0.0	0.0	0.0	0.0	1.0	3.0	3.0	9.0	9.0	9.0	–	9.0	9.0	–	9.0	Herbicidal rating ORYSAT (rice tolerance) (ORYSAT (Rice, Tebonnet) [3]; 0.0313 kg/ha, post-transplant rice, flooded paddy, rated 3-4 weeks after treatment): 0.0; Herbicidal rating ORYSAT (rice tolerance) (ORYSAT (Rice, Tebonnet) [3]; 0.0625 kg/ha, post-transplant rice, flooded paddy, rated 3-4 weeks after treatment): 0.0; Herbicidal rating ORYSAT (rice tolerance) (ORYSAT (Rice, Tebonnet) [3]; 0.1250 kg/ha, post-transplant rice, flooded paddy, rated 3-4 weeks after treatment): 0.0; Herbicidal rating ORYSAT (rice tolerance) (ORYSAT (Rice, Tebonnet) [3]; 0.2500 kg/ha, post-transplant rice, flooded paddy, rated 3-4 weeks after treatment): 0.0; Herbicidal rating MOOVA (MOOVA (Monochoria); rate 0.0313 kg/ha): 7.0; Herbicidal rating ORYSAT (rice tolerance) (ORYSAT (Rice, Tebonnet) [4]; rate 0.0313 kg/ha, flooded paddy, post-transplant rice, 3-4 weeks after treatment): 0.0; Herbicidal rating ORYSAT (rice tolerance) (ORYSAT (Rice, Tebonnet) [4]; rate 0.0625 kg/ha, flooded paddy, post-transplant rice, 3-4 weeks after treatment): 0.0; Herbicidal rating ORYSAT (rice tolerance) (ORYSAT (Rice, Tebonnet) [4]; rate 0.1250 kg/ha, flooded paddy, post-transplant rice, 3-4 weeks after treatment): 0.0; Herbicidal rating ORYSAT (rice tolerance) (ORYSAT (Rice, Tebonnet) [4]; rate 0.2500 kg/ha, flooded paddy, post-transplant rice, 3-4 weeks after treatment): 0.0
